What all share (type): cell-based
In test [1] the test system is Acinetobacter baumanni. The note with it: 37° C. for 20 hours; tested twice, first/second value where not matched. On the procedure: (§1) Further, with respect to not only the above-described strains but also various other strains, the “minimum inhibitory concentration (MIC)” was measured as follows. MIC is the lowest concentration of an agent that may inhibit the growth of a bacterium. MIC is used as a parameter for the efficacy of an antibacterial agent, for the strength of bacterial sensitivity, or the like. The bacteria can grow (proliferate) when the concentration is not higher than MIC, and cannot grow when the concentration is higher than MIC. Its measurement is carried out according to a method defined as a standard method by Japanese Society of Chemotherapy or CLINICAL AND LABORATORY […] (CLSI), but, in this Example, its measurement was carried out by a broth microdilution method in accordance with “M100-S17/M7-A7” (Performance Standards for Antimicrobial Susceptibility Testing; Seventeenth Informational Supplement, Vol. 27 No. 1) published by CLSI on January, 2007. That is, sensitivity test of agents was carried out using a microtiter plate or test tubes.
(§2) The bacteria were cultured in liquid media for 4 to 6 hours, and thereafter absorbances at A600 were measured. Bacterial suspensions were diluted with Mueller-Hinton broth (MHB) according to McFarland #0.5. Each strain was added so as to attain about 10^5 CFU/ml (final concentration). Each peptide was prepared to an optional concentration, and the solutions were serially diluted from the concentration. The polypeptide at each concentration stage was added to a microplate or test tubes, and the bacterial suspension was added thereto. Chloramphenicol, amphotericin B, ciprofloxacin, meropenem (MEPM), ciprofloxacin (CPFX), tobramycin (TOB) and oxacillin (OX) were used as positive controls. The plate was incubated at 37° C. for 20 hours, and the lowest concentration where bacterial growth was inhibited was regarded as the minimum inhibitory concentration.

Test [2] has as its system Enterococcus faecalis. The test is described as follows: microbe, parasite or virus in culture. The note with it: 37° C. for 20 hours, tested twice, first/second value where not matched. On the procedure:
as §1, §2

In test [3] the test system is Fusobacterium nucleatum. The test is described as follows: microbe, parasite or virus in culture. Particulars: Fusobacterium nucleatum; 37° C. for 20 hours; tested twice, first/second value where not matched. On the procedure:
as §1, §2

The test system of test [4] is Clostridium ramosum. The test is described as follows: microbe, parasite or virus in culture. The note with it: Thomasclavelia ramosa; 37° C. for 20 hours; tested twice, first/second value where not matched. On the procedure:
as §1, §2

In test [5] the test system is Micrococcus luteus. The test is described as follows: microbe, parasite or virus in culture. The note with it: 37° C. for 20 hours, tested twice, first/second value where not matched. On the procedure:
as §1, §2

For test [6], the system named is Bacillus subtilis. The test is described as follows: microbe, parasite or virus in culture. Particulars: 37° C. for 20 hours, tested twice, first/second value where not matched. On the procedure:
as §1, §2

Test [7] relates to Bacteroides fragilis. The test is described as follows: microbe, parasite or virus in culture. Particulars: Bacteroides fragilis; 37° C. for 20 hours; tested twice, first/second value where not matched. On the procedure:
as §1, §2

In test [8] the test system is Salmonella typhimurium. The test is described as follows: microbe, parasite or virus in culture. The note with it: Salmonella enterica, TYPHIMURIUM; 37° C. for 20 hours; tested twice, first/second value where not matched. On the procedure: as §1, §2
For test [9], the system named is Salmonella enteritidis. The test is described as follows: microbe, parasite or virus in culture. Particulars: Salmonella enterica, 37° C. for 20 hours, tested twice, first/second value where not matched. On the procedure:
as §1, §2

Test [10] deals with Streptococcus pyogenes. The test is described as follows: microbe, parasite or virus in culture. Particulars: 37° C. for 20 hours, tested twice, first/second value where not matched. On the procedure:
as §1, §2

In brackets after ≈: the same amount, converted by molar mass.

In the case of `O=C(N[C@H](CO)[C@H](O)c1ccc([N+](=O)[O-])cc1)C(Cl)Cl` [Chloramphenicol], the “MIC, Acinetobacter baumanni” value in test [1] was 16/32. The MIC in [2] amounted to 4 µg/mL (≈ 12.4 µM); in test [3], 0.25 µg/mL (≈ 0.774 µM); in test [4] it was 4 µg/mL (≈ 12.4 µM); in test [5], 1 µg/mL (≈ 3.09 µM); in test [6], 4 µg/mL (≈ 12.4 µM); in [7], 1 µg/mL (≈ 3.09 µM). In addition, the MIC came out at 4 µg/mL (≈ 12.4 µM) in test [8], 4 µg/mL (≈ 12.4 µM) in test [9] and 2 µg/mL (≈ 6.19 µM) in test [10].

The record behind these values is US9695219B2, “Polypeptide having antibacterial activity and angiogenesis-inducing activity and wound-healing drug containing said polypeptide” (priority 2009, dated 2017).
